Structures can show the parent of a compound that is named as a salt. Where two headings read alike, the source gives them in different places.
Assays:
[1] = cited from earlier work; for Solubility (Aq): in words; for pKa (acidic): first pKa (acidic) column
[2] = Solubility of actives in individual solvents
Description: The purpose of these studies was to identify solvents and co-solvents to optimise solubility of actives and the physical/chemical stability of product.

[3] = Stability of test composition with surfactants (phase separation, crystals); format: physicochemical; conditions: surfactant added to test composition (Table 5); room temperature (24±1° C.)
Description: The purpose of this study was to examine the stability of the formula which may comprise surface active agents such as surfactants. […] Three temperatures (RT, 4.5° C. and −20° C.) were used to monitor for phase separation and/or drug crystal formation every one or two days from 6 days.

[4] = at RT; cited from earlier work
[5] = Moxidectin skin deposition study; format: in vitro ADME, bovine; conditions: 72 hours
Description: The amount of moxidectin accumulating in the bovine skin was determined using whole skin thickness (approx. […]) and split skin thickness (approx. […]) after 72 hours. The skin tissue was physically broken down using a Gentle MACS dissociator (Miltenyi Biotec GmbH, Germany) with 5 mL of methanol added into each sample. The dissociator setting was RNA-02.01 with M-type tubes for 90 seconds. Centrifuged samples had the supernatant collected and diluted 2 times with ACN before being analysed by the HPLC method.

[6] = male, bovine, pH 7.4
[7] = horse
[8] = rabbit

## abamectin
[1]
  logP: 4.4
  Solubility (Aq): Insoluble
[2]; in AGNIQUE AMD 10
  Maximum Solubility % w/w: At least 1 % w/w
[2]; in AGNIQUE AMD 810
  Maximum Solubility % w/w: At least 1 % w/w
[2]; in Cremophor
  Maximum Solubility % w/w: At least 1 % w/w
[2]; in DMSO
  Maximum Solubility % w/w: At least 1 % w/w
[2]; in Dipropylenglycol dimethylether
  Maximum Solubility % w/w: At least 1 % w/w
[2]; in Ecoteric T80
  Maximum Solubility % w/w: At least 1 % w/w
[2]; in Glycerol Formal
  Maximum Solubility % w/w: 19 % w/w
[2]; in Isopropyl Mirystate
  Maximum Solubility % w/w: At least 1 % w/w
[2]; in Isopropyleneglycol
  Maximum Solubility % w/w: 7 % w/w
[2]; in Isosorbide
  Maximum Solubility % w/w: At least 1 % w/w
[2]; in PEG400
  Maximum Solubility % w/w: At least 1 % w/w
[2]; in Polysorbate 20
  Maximum Solubility % w/w: At least 1 % w/w
[2]; in Span 80
  Maximum Solubility % w/w: At least 1 % w/w
[2]; in Tetraglycol
  Maximum Solubility % w/w: 8 % w/w
[2]; in Triacetin
  Maximum Solubility % w/w: 3 % w/w
[2]; in Tripropylene glycol methylether (TPGME)
  Maximum Solubility % w/w: 8 % w/w

## CCCCCCCC/C=C\CCCCCCCC(=O)OCCOCC(OCCO)C1OCC(OCCO)C1OCCO (stereo not shown) [Tween 80]
[3]
  Stability of test composition, RT: S

## Span 60
[4]
  HLB: 4.7

## C[C@]12CCC(=O)C=C1CC[C@@H]1[C@@H]2[C@@H](O)C[C@@]2(C)[C@H]1CC[C@]2(O)C(=O)CO [Hydrocortisone, Hydrocortisone (base)]
[1]
  pKa (basic): −2.8
  pKa (acidic): 12.6

## Tocopherol
[4]
  HLB: 6.0

## CO/N=C1\C[C@]2(C[C@@H]3C[C@@H](C/C=C(\C)C[C@@H](C)/C=C/C=C4\CO[C@@H]5[C@H](O)C(C)=C[C@@H](C(=O)O3)[C@]45O)O2)O[C@H](/C(C)=C/C(C)C)[C@H]1C [Moxidectin, moxidectin]
[5]; 500 μm skin
  proportion of the drug in Donor: 51%
  proportion of the drug in Receptor: 31%
  proportion of the drug in Skin: 18%
[5]; Whole skin
  proportion of the drug in Donor: 65%
  proportion of the drug in Receptor: 3%
  proportion of the drug in Skin: 32%
[6]; 72 h
  flux rate of moxidectin: 475±185.2 ng/cm^2/hr
[1]
  Solubility (Aq): Insoluble

## Span 80
[4]
  HLB: 4.3

## CCN(CC)CCNC(=O)c1cc(Cl)c(N)cc1OC [Metoclopramide, Metacloprimide HCl]
[6]; 0 h
  Mean (μg/cm2) permeated: 0 μg/cm2
[6]; 2 h
  Mean (μg/cm2) permeated: 16.2 μg/cm2
[6]; 4 h
  Mean (μg/cm2) permeated: 251 μg/cm2
[6]; 6 h
  Mean (μg/cm2) permeated: 456 μg/cm2
[6]; 8 h
  Mean (μg/cm2) permeated: 960 μg/cm2
[6]; 20 h
  Mean (μg/cm2) permeated: 2188 μg/cm2
[6]; 24 h
  Mean (μg/cm2) permeated: 2252 μg/cm2
[6]; 26 h
  Mean (μg/cm2) permeated: 2718 μg/cm2
[6]; 44 h
  Mean (μg/cm2) permeated: 4779 μg/cm2
[6]; 48 h
  Mean (μg/cm2) permeated: 5169 μg/cm2
[6]; 52 h
  Mean (μg/cm2) permeated: 5394 μg/cm2
[6]; 58 h
  Flux: 109.4±11.8 μg/cm^2/hr
[6]; 68 h
  Mean (μg/cm2) permeated: 5336 μg/cm2
[6]; 70 h
  Mean (μg/cm2) permeated: 5613 μg/cm2
[6]; 72 h
  APC: 97.1 cm/s × 10^−8
  Extent 72 h: 5346 μg/cm^2
  Flux: 109 μg/cm^2/hr
  Mean (μg/cm2) permeated: 5346 μg/cm2
[6]
  lag T: 1.07 h
[7]
  lag T: 3.11 h
[7]; 0 h
  Mean (μg/cm2) permeated: 0 μg/cm2
[7]; 2 h
  Mean (μg/cm2) permeated: 0 μg/cm2
[7]; 4 h
  Mean (μg/cm2) permeated: 0 μg/cm2
[7]; 6 h
  Mean (μg/cm2) permeated: 0 μg/cm2
[7]; 8 h
  Mean (μg/cm2) permeated: 68.1 μg/cm2
[7]; 10 h
  Mean (μg/cm2) permeated: 679 μg/cm2
[7]; 20 h
  Mean (μg/cm2) permeated: 1372 μg/cm2
[7]; 24 h
  Flux: 67.0±24.6 μg/cm^2/hr
  Mean (μg/cm2) permeated: 1533 μg/cm2
[7]; 26 h
  Mean (μg/cm2) permeated: 1477 μg/cm2
[7]; 28 h
  Mean (μg/cm2) permeated: 1640 μg/cm2
[7]; 44 h
  Mean (μg/cm2) permeated: 2604 μg/cm2
[7]; 46 h
  Mean (μg/cm2) permeated: 2784 μg/cm2
[7]; 48 h
  Mean (μg/cm2) permeated: 2910 μg/cm2
[7]; 50 h
  Mean (μg/cm2) permeated: 2930 μg/cm2
[7]; 52 h
  Mean (μg/cm2) permeated: 3078 μg/cm2
[7]; 68 h
  Mean (μg/cm2) permeated: 3350 μg/cm2
[7]; 70 h
  Mean (μg/cm2) permeated: 3440 μg/cm2
[7]; 72 h
  APC: 62.7 cm/s × 10^−8
  Extent 72 h: 3454 μg/cm^2
  Flux: 67.0 μg/cm^2/hr
  Mean (μg/cm2) permeated: 3454 μg/cm2
[8]
  Flux: 38.6±9.2 μg/cm^2/hr
  lag T: 4.84 h
[8]; 0 h
  Mean (μg/cm2) permeated: 0 μg/cm2
[8]; 2 h
  Mean (μg/cm2) permeated: 0 μg/cm2
[8]; 4 h
  Mean (μg/cm2) permeated: 0 μg/cm2
[8]; 6 h
  Mean (μg/cm2) permeated: 0 μg/cm2
[8]; 8 h
  Mean (μg/cm2) permeated: 0 μg/cm2
[8]; 10 h
  Mean (μg/cm2) permeated: 32.3 μg/cm2
[8]; 20 h
  Mean (μg/cm2) permeated: 685 μg/cm2
[8]; 24 h
  Mean (μg/cm2) permeated: 772 μg/cm2
[8]; 26 h
  Mean (μg/cm2) permeated: 831 μg/cm2
[8]; 28 h
  Mean (μg/cm2) permeated: 925 μg/cm2
[8]; 44 h
  Mean (μg/cm2) permeated: 1537 μg/cm2
[8]; 46 h
  Mean (μg/cm2) permeated: 1612 μg/cm2
[8]; 48 h
  Mean (μg/cm2) permeated: 1567 μg/cm2
[8]; 50 h
  Mean (μg/cm2) permeated: 1782 μg/cm2
[8]; 52 h
  Mean (μg/cm2) permeated: 1968 μg/cm2
[8]; 68 h
  Mean (μg/cm2) permeated: 2391 μg/cm2
[8]; 70 h
  Mean (μg/cm2) permeated: 2387 μg/cm2
[8]; 72 h
  APC: 45.7 cm/s × 10^−8
  Extent 72 h: 2515 μg/cm^2
  Flux: 38.6 μg/cm^2/hr
  Mean (μg/cm2) permeated: 2515 μg/cm2

## CCCCCCCC/C=C\CCCCCCCCOCCOCCO [Brij 93, polyoxyethylene (2) oleyl ether]
[4]
  HLB: 4.5 ± 0.4

## c1ccc([C@H]2CN3CCSC3=N2)cc1 [Lev. Base, levamisole base]
[6]; 72 h
  flux rate of levamisole: 949.6±80.8 μg/cm^2/hr
[1]
  logP: 1.8
  pKa (acidic): 8
  Solubility (Aq): Insoluble
[1]; stated for the basic drug LEV
  pKa: 8
